{
  "source": "patent US12433863B2",
  "about": "“Pharmaceutical compositions and uses directed to lysosomal storage disorders” (INTRABIO LIMITED, priority 2016, dated 2025)",
  "key": {"[1]": {"tested_on": "Npc1^−/− (BALB/cNctr-Npc1^m1N/J) mouse", "assay": "In vivo mouse study in Npc1-/- mouse model of NPC (coat, weight, CatWalk gait, open field motor function, lifespan)", "protocol": "Separate groups of Npc1^-/- and Npc1^+/+ mice were left untreated, as controls. […] Animals were weighed twice a week. Weights were averaged (mean) across all mice in each group and compared. Gait analysis was performed on mice at eight weeks of age using a CatWalk® 15.0 system according to manufacturer's instructions (Noldus, Nottingham, UK). Five runs were recorded per animal. CatWalk® parameters measured were: • 1. Stand Mean: average duration (s) of paws in contact with glass plate; • 2. Step Cycle: duration (s) between two consecutive contacts of the same paw; • 3. Duty Cycle: percentage of time paws in contact with plate compared with time to complete a step cycle; • 4. Step Sequence (AB): percentage of time spent walking in LF-RH-RF-LH alternating pattern (LF: left front; RH: right hind; RF: right front; LH left hind); • 5. Cadence: step per seconds in a trial; • 6. Diagonal Support: percentage of time with simultaneous contact of diagonal paws with the glass plate (RF&LH or RH&LF). Motor Function Analysis Motor function analysis was performed on mice at eight and nine weeks of age using an Open Field Activity Monitor according to manufacturer's instructions (Linton Instruments, Amlogger Software). Each mouse was placed in a plastic cage with bedding and analysed for five minutes. Rears were counted manually. Motor function parameters measured were: • 1. Centre Rearing: mice rearing on hind legs unsupported; • 2. Rearing: mice rearing on hind legs with and without the support of cage walls; • 3. Activity: regular movement of the animal including walks; • 4. Front to Back (FR) count: movement of the animal from front to back of the cage; • 5. Active Time: duration (s/min) of activeness regardless of movement; • 6. Mobile Time: duration (s/min) of mobility; • 7. Rearing Time: duration of any rearing."}, "[2]": {"tested_on": "Tay-Sachs disease patient fibroblasts", "assay": "Glycosphingolipid (GSL) levels by HPLC in Tay-Sachs disease patient fibroblasts", "assay_type": "cell-based, human", "conditions": "1 mM for 6 days, p<0.05"}, "[3]": {"tested_on": "patients with Niemann-Pick Type C (NPC)", "conditions": "one-month study, 12 NPC patients; Bremova et al. 2015; cited from earlier work"}},
  "data": [
    {"smiles": "CC(=O)NC(CC(C)C)C(=O)O", "note": "(racemic) [acetyl-DL-leucine]", "values": [
      {"measurement": "Delay until display of disease symptoms versus untreated Npc1-/- mice", "setting": "[1]; Npc1-/- mice treated from weaning", "value": "two"},
      {"measurement": "Delay of weight loss symptoms compared to the untreated group", "setting": "[1]; Npc1-/- mice, 0.1 g/kg from weaning", "value": "two"},
      {"measurement": "Gait properties (CatWalk) compared to untreated littermates", "setting": "[1]; Npc1-/- mice, 0.1 g/kg from weaning, eight weeks of age", "value": "significantly improved gait"},
      {"measurement": "Motor function properties (Open Field Activity Monitor) compared to untreated littermates", "setting": "[1]; Npc1-/- mice, 0.1 g/kg from weaning, nine weeks of age", "value": "significantly improved motor function"},
      {"measurement": "Coat condition", "setting": "[1]; Npc1-/- mice, 0.1 g/kg in chow from weaning, nine weeks of age", "value": "smooth and glossy coat"},
      {"measurement": "Lifespan", "setting": "[1]; Npc1-/- mouse, 0.1 g/kg from 3 weeks of age", "value": "small but statistically significant increase in lifespan"},
      {"measurement": "GSL levels (GSL storage)", "setting": "[2]", "value": "decrease was statistically significant"},
      {"measurement": "Ataxia symptoms", "setting": "[3]", "value": "symptomatic improvement of ataxia"}
    ]}
  ]
}
